From US12173042B2, “Methods of treating cancers with CT45 targeted therapies” (The University of Chicago, priority 2016, dated 2024)

Experiments:
Type in all cases: cell-based, human
[1] = system: γH2AX and cleaved caspase-3 in CT45-expressing cancer cells; experiment: Western blot of γH2AX and cleaved caspase-3; details: day 5
Experimental: (§1) Cells were treated with 5 μM carboplatin plus 1.5 nM paxlitaxel for 3 days and then incubated an additional 2 days without drug prior to collection on day 5. Both adherent and non-adherent cells were collected in RIPA buffer (25 mM Tris-HCl pH 7.6, 150 mM NaCl, 1% NP-40, 0.5% sodium deoxycholate, 0.1% SDS) supplemented with protease inhibitor cocktail (Thermo Scientific) and phosphatase inhibitor cocktail (Sigma). Lysates were incubated for 30 min on ice before centrifugation (15 min, 14 000 rpm, 4° C.). The quantity of protein was determined by BCA reagent (Pierce). The extracts were analyzed by SDS-PAGE on a 4-20% gradient gel (Bio-Rad).
as §1, with “indicated drugs” for “5 μM carboplatin plus 1.5 nM paxlitaxel”, “media was changed. On indicated” for “incubated an additional 2 days without drug prior to collection on”, “of collection, both” for “5. Both”, “ice, sonicated and cleared by” for “ice before”

59M cells = experiment: Colony assay of carboplatin treated 59M cells with siRNA; details: cells deficient in PP4 or expressing CT45
Text: FIG. 23. Cell deficient in PP4 or expressing the endogenous PP4 inhibitor CT45 are hypersensitive to carboplatin treatment. Shown are colony assay results of carboplatin treated 59M cells transfected with a control siRNA, PP4C siRNA or CT45 siRNA. Colony numbers are normalized to untreated cells of each siRNA.

[2] = system: chromatin enrichment of KAP-1 or PP4; experiment: Chromatin fractionation; details: OVCAR5-V5-CT45 cell line
Experimental: Chromatin fractionation was performed as described previously. Soluble proteins and proteins bound to open or compacted chromatin were separated by stepwise increasing the salt and nuclease (MNase) treatment. 1E7 cells were washed with PBS and 1 ml low salt buffer (LSB: 10 mM HEPES [pH 7.4], 25 mM KCl, 10 mM NaCl, 1 mM MgCl2, 0.1 mM EDTA). Pelleted cells were then resuspended in six times the packed cell volume (PCV) of LSB supplemented with protease and phosphatase inhibitor cocktail (Roche). After snap freezing in liquid nitrogen, samples were quickly thawed and immediately centrifuged (10 min at 10,000 rpm). The pellet was resuspended in a volume of high-salt buffer (HSB: 50 mM Tris-HCl [pH 8.0], 5% [v/v] glycerol, 1 mM EDTA, 10 mM MgCl2, 400 mM KCl, supplemented with protease and phosphatase inhibitor cocktail), equal to 0.25 V of LSB. After centrifugation at 10,000 rpm (supernatant=nucleoplasmic fraction), the pellet was resuspended in a volume nuclease buffer containing 10 U/ml MNase (NEB) and incubated at 37° C. for 10 min and centrifuged for 5 min at 10,000 rpm (supernatant=chromatin fraction 1). The pellet was then resuspended in the same volume of nuclease buffer containing 100 U/ml MNase and incubated another 45 min at 37° C. before an equal V of solubilization buffer (nuclease buffer+2% [v/v] NP-40, 2% [v/v] Triton X-100, 600 mM NaCl) was added. […]

OVCAR5-V5-CT45 cells = experiment: Nuclear size (DAPI); details: cells expressing CT45, day 5, carboplatin 5 μM
Experimental: FIG. 13A-I. CT45 interferes with chromatin dynamics after DNA damage. A, Western blot analysis of OVCAR5 and OVKATE cell line pairs treated with carboplatin (5 μM). Day 3. B, Immunofluorescence staining of KAP1-S824 γH2AX and DAPI in OVCAR5-V5 and OVCAR5-V5-CT45 cell line pair with or without carboplatin treatment (5 μM) at day 3, 5, and 7. Data are means+/−s.e.m. of 5 independent replicates (right panel). Representative cells are shown left. C, CT45 positive 59M cells were collected and processed for a chromatin segregation assay as detailed in the Methods. PP4 complex members, KAP1, and HDAC2 were detected by western blot. D, Volcano plot of chromatin-immunoprecipitation mass spectrometry (ChIP-MS) results for the V5-tag in OVCAR5-V5-CT45 vs. OVCAR5-V5 cell line. Fold enrichment of V5-tagged CT45 over control cell line (V5 tag alone) is plotted against the t-test p-value (−log10). Dashed lines indicate significance thresholds (FDR<0.01, s0=2). […] Most significant pathways are ranked by enrichment false-discovery rate. F, Fold change in nuclear sizes of OVCAR5-V5-CT45 and OVCAR5-V5 cells at day 5 with carboplatin (5 μM) treatment normalized to untreated cells. Representative DAPI images are shown in upper panel. Bar plots represent nuclear sizes from 5 independent experiments. Scale ar=[…]. Data are means+/−s.e.m. […]

N.N.O=C([O-])C1(C(=O)[O-])CCC1.[Pt+2] [carboplatin]
levels of cleaved caspase-3 [1]: increased levels
levels of γH2AX [1]: increased levels
sensitivity of colony formation to carboplatin (59M cells): hypersensitive
chromatin enrichment of KAP-1 or PP4 [2]: did not find
nuclear size (OVCAR5-V5-CT45 cells): larger nuclei
